Here are results for eleven compounds from patent US20170152226A1, “FUNCTIONALISED AND SUBSTITUTED INDOLES AS ANTI-CANCER AGENTS” (Novogen Ltd., priority 2014, published 2017).

Common to all, as to experiment: Anti-proliferative activity, cell-titre luminescent viability assay
What all share (assay type): cell-based

One assay concerns A549. The following applies: read-out: IC50 Lung (NSLC) A549. As to the method: (§1) The ability of compounds 3501-3540 and 3542-3545 to inhibit the proliferation of cancer cells representative of neuroblastoma, melanoma, prostate cancer, colorectal cancer, non-small cell lung carcinoma, and triple negative breast cancer was assessed. Briefly, a pre-determined number of cells as calculated from cell growth assays for each of the cell lines employed were seeded into their respective culture medium (using ATCC culture parameters—http://www.atcc.org) and cultured for 24 hours at 37° C. and 5% CO2 in 96-well culture plates. Once attached, each cell line was then exposed to increasing concentrations of each respective analogue (0.03, 0.3, 3 and 30 μM for compounds in Table 1; 0.1, 0.3, 1, 3, 10 and 30 μM for compounds in Table 2), cultured for a further 72 hours and exposed to cell-titre luminescent reagent (100 μL/well) for a further 30 min) to assess for cell viability. Luminescence was captured using an EnVision multilabel reader and the data for each analogue concentration was normalized, as a percentage, to the no treatment control. For compounds 3501, 3503, 3505-08, 3512-18, 3520, 3522-24 and 3531-36, semi-log plots of Percent of Control versus concentration were prepared and IC50 determined using linear regression analysis. For compounds 3502, 3504, 3509-11, 3519, 3521, 3525-30, 3537-40 and 3542-45, cell viability was normalized to control (vehicle alone) and dose-response curves, and half maximal effective concentration (EC50) values were determined using Graph Pad Prism 6 (nonlinear regression sigmoidal dose-response variable slope).

The test system of another assay is CaCo2. The following applies: read-out: IC50 Colorectal CaCo2. On the procedure:
as §1

The test system of a further assay is DU145. To be noted: read-out: IC50 Prostate DU145. On the procedure:
as §1

The next assay concerns MDA-MB-231. The following applies: read-out: IC50 Breast MDA-MB-231. On the procedure:
as §1

For another assay, the system named is PC3. To be noted: read-out: IC50 Prostate PC3. As to the method: as §1
The subject of the next assay is SK-Mel-28. To be noted: 72 hours, read-out: IC50 Melanoma SK-Mel-28. On the procedure: as §1
In another assay the test system is SK-N-SH. To be noted: read-out: IC50 Neuroblastoma SK-N-SH. On the procedure: as §1
Setting [1] is: Homo sapiens, A549, 72 h, 0.1, 0.3, 1, 3, 10 and 30 μM, nonlinear regression sigmoidal dose-response (EC50).
[2] abbreviates: Homo sapiens, Caco-2, 72 h, 0.1, 0.3, 1, 3, 10 and 30 μM, nonlinear regression sigmoidal dose-response (EC50).
Setting [3] is: Homo sapiens, DU-145, 72 h, 0.1, 0.3, 1, 3, 10 and 30 μM, nonlinear regression sigmoidal dose-response (EC50).
[4] abbreviates: Homo sapiens, MDA-MB-231, 72 h, 0.1, 0.3, 1, 3, 10 and 30 μM, nonlinear regression sigmoidal dose-response (EC50).
[5] abbreviates: Homo sapiens, PC-3, 72 h, 0.1, 0.3, 1, 3, 10 and 30 μM, nonlinear regression sigmoidal dose-response (EC50).
The mark [6] stands for this setting: Homo sapiens, SK-MEL-28, 0.1, 0.3, 1, 3, 10 and 30 μM, nonlinear regression sigmoidal dose-response (EC50).
[7] abbreviates: Homo sapiens, SK-N-SH, 72 h, 0.1, 0.3, 1, 3, 10 and 30 μM, nonlinear regression sigmoidal dose-response (EC50).
[8] abbreviates: Homo sapiens, A549, 72 h, 0.03, 0.3, 3 and 30 μM, linear regression of semi-log plots.
Setting [9] is: Homo sapiens, Caco-2, 72 h, 0.03, 0.3, 3 and 30 μM, linear regression of semi-log plots.
[10] abbreviates: Homo sapiens, DU-145, 72 h, 0.03, 0.3, 3 and 30 μM, linear regression of semi-log plots.
[11] abbreviates: Homo sapiens, MDA-MB-231, 72 h, 0.03, 0.3, 3 and 30 μM, linear regression of semi-log plots.
Setting [12] is: Homo sapiens, PC-3, 72 h, 0.03, 0.3, 3 and 30 μM, linear regression of semi-log plots.
Setting [13] is: Homo sapiens, SK-MEL-28, 0.03, 0.3, 3 and 30 μM, linear regression of semi-log plots.
[14] abbreviates: Homo sapiens, SK-N-SH, 72 h, 0.03, 0.3, 3 and 30 μM, linear regression of semi-log plots.
Where [15] appears, read: 72 hours, 0.03, 0.3, 3 and 30 μM, linear regression of semi-log plots.

Usually pIC50 stands for −log10 of the IC50, conventionally taken in molar units.

Each structure is given as a SMILES string. pIC50: −log10 of the molar value. Like-named read-outs stand apart in the source and are kept apart here.

As to `Cc1c(C)n(CCCN2CCN(C)CC2)c2ccc(Oc3ccc(C(=O)N4CCN(CCc5ccccc5)CC4)cc3)cc12` [Compound 3530], the negative-log IC50 (pIC50) with A549 (setting [1]) was 5.62; in the assay with CaCo2 (setting [2]) it was 5.37; with DU145 (setting [3]), 5.35; in the assay with MDA-MB-231 (setting [4]), 5.68; in the assay with PC3 (setting [5]), 5.32; in the assay with SK-Mel-28 (setting [6]), 5.41. Further, in the assay on SK-N-SH (setting [7]), the pIC50 was 5.80.

Regarding `Cc1c(C)n(CCCN2CCN(C)CC2)c2ccc(Nc3ccc(C(=O)N4CCN(CCc5ccc(F)cc5)CC4)cc3)cc12` [Compound 3531, (4-((2,3-dimethyl-1-(3-(4-methylpiperazin-1-yl)propyl)-1H-indol-5-yl)amino)phenyl)(4-(4-fluorophenethyl)piperazin-1-yl)methanone], the pIC50 in the assay with A549 (setting [8]) is 5.41; with CaCo2 (setting [9]) it was 5.38; in the assay with DU145 (setting [10]), 5.41; in the assay with MDA-MB-231 (setting [11]) it was 5.46; in the assay with PC3 (setting [12]), 5.34; with SK-Mel-28 (setting [13]), 5.55. Moreover, the negative-log IC50 (pIC50) in the assay with SK-N-SH (setting [14]) is 5.47.

Consider `COc1ccc(CCN2CCN(C(=O)c3ccc(Nc4ccc5c(c4)c(C)c(C)n5CCCN4CCN(C)CC4)cc3)CC2)cc1` [Compound 3532, (4-((2,3-dimethyl-1-(3-(4-methylpiperazin-1-yl)propyl)-1H-indol-5-yl)amino)phenyl)(4-(4-methoxyphenethyl)piperazin-1-yl)methanone], for which the pIC50 with A549 (setting [8]) is 5.66; in the assay with CaCo2 (setting [15]), 5.51; with DU145 (setting [10]) it was 5.40; in the assay on MDA-MB-231 (setting [11]) it was 5.72; in the assay with PC3 (setting [12]), 5.38; in the assay with SK-Mel-28 (setting [13]) it was 5.57. The negative logarithm of the IC50 (pIC50) in the assay with SK-N-SH (setting [14]) is 5.64.

Turning to `Cc1c(C)n(CCCN2CCN(C)CC2)c2ccc(Nc3ccc(C(=O)N4CCN(CCc5ccc6c(c5)OCO6)CC4)cc3)cc12` [Compound 3533, (4-(2-(benzo[d][1,3]dioxol-5-yl)ethyl)piperazin-1-yl)(4-((2,3-dimethyl-1-(3-(4-methylpiperazin-1-yl)propyl)-1H-indol-5-yl)amino)phenyl)methanone], the pIC50 in the assay on A549 (setting [8]) is 5.43; with CaCo2 (setting [9]), 5.41; with DU145 (setting [10]), 5.43; with MDA-MB-231 (setting [11]), 5.38; in the assay with PC3 (setting [12]), 5.48; in the assay with SK-Mel-28 (setting [13]), 5.32. The negative logarithm of the IC50 (pIC50) with SK-N-SH (setting [14]) was 5.48.

As to `COc1cccc(CCN2CCN(C(=O)c3ccc(Nc4ccc5c(c4)c(C)c(C)n5CCCN4CCN(C)CC4)cc3)CC2)c1` [Compound 3535, (4-((2,3-dimethyl-1-(3-(4-methylpiperazin-1-yl)propyl)-1H-indol-5-yl)amino)phenyl)(4-(3-methoxyphenethyl)piperazin-1-yl)methanone], the negative logarithm of the IC50 (pIC50) with A549 (setting [8]) is 5.57; in the assay on CaCo2 (setting [9]) it was 5.52; in the assay on DU145 (setting [10]) it was 5.42; in the assay on MDA-MB-231 (setting [11]) it was 5.59; in the assay on PC3 (setting [12]) it was 5.43; in the assay on SK-Mel-28 (setting [13]), 5.48. Further, in the assay on SK-N-SH (setting [14]), the pIC50 is 5.55.

Turning to `COc1ccc(CCN2CCN(C(=O)c3ccc(Nc4ccc5c(c4)c(C)c(C)n5CCCN4CCN(C)CC4)cc3)CC2)cc1` [Compound 3536, (4-((2,3-dimethyl-1-(3-(4-methylpiperazin-1-yl)propyl)-1H-indol-5-yl)amino)phenyl)(4-(4-methoxyphenethyl)piperazin-1-yl)methanone], the pIC50 was 5.51 with A549 (setting [15]); 4.89 in the assay on CaCo2 (setting [15]); 5.44 in the assay on DU145 (setting [15]); 5.60 in the assay with MDA-MB-231 (setting [15]); 5.37 in the assay on PC3 (setting [15]); 5.57 in the assay on SK-Mel-28 (0.03, 0.3, 3 and 30 μM, linear regression of semi-log plots). Further, the negative-log IC50 (pIC50) in the assay with SK-N-SH (setting [15]) was 5.54.

Consider `Cc1c(C)n(CCCN2CCN(C)CC2)c2ccc(Cc3cccc(C(=O)N4CCN(CCc5ccc6ccccc6c5)CC4)c3)cc12` [Compound 3537, (3-((2,3-dimethyl-1-(3-(4-methylpiperazin-1-yl)propyl)-1H-indol-5-yl)methyl)phenyl)(4-(2-(naphthalen-2-yl)ethyl)piperazin-1-yl)methanone], for which the negative logarithm of the IC50 (pIC50) was 5.44 in the assay with A549 (setting [1]); 5.30 in the assay with CaCo2 (setting [2]); 5.24 in the assay with DU145 (setting [3]); 5.32 in the assay on MDA-MB-231 (setting [4]); 5.10 with PC3 (setting [5]); 5.32 in the assay with SK-Mel-28 (setting [6]). Further, the negative-log IC50 (pIC50) in the assay on SK-N-SH (setting [7]) is 5.38.

`Cc1c(C)n(CCCN2CCN(C)CC2)c2ccc(Cc3cccc(C(=O)N4CCN(CCc5cccc6ccccc56)CC4)c3)cc12` [Compound 3539, (3-((2,3-dimethyl-1-(3-(4-methylpiperazin-1-yl)propyl)-1H-indol-5-yl)methyl)phenyl)(4-(2-(naphthalen-1-yl)ethyl)piperazin-1-yl)methanone]: the pIC50 in the assay on A549 (setting [1]) was 5.41; in the assay with CaCo2 (setting [2]) it was 5.34; in the assay with DU145 (setting [3]) it was 5.41; in the assay on MDA-MB-231 (setting [4]), 5.55; with PC3 (setting [5]) it was 5.52; in the assay with SK-Mel-28 (setting [6]), 5.66. Also, in the assay on SK-N-SH (setting [7]), the pIC50 was 5.77.

As to `COc1ccc2cccc(CCN3CCN(C(=O)c4cccc(Cc5ccc6c(c5)c(C)c(C)n6CCCN5CCN(C)CC5)c4)CC3)c2c1` [Compound 3540, (3-((2,3-dimethyl-1-(3-(4-methylpiperazin-1-yl)propyl)-1H-indol-5-yl)methyl)phenyl)(4-(2-(7-methoxynaphthalen-1-yl)ethyl)piperazin-1-yl)methanone], the pIC50 in the assay with A549 (setting [1]) is 5.30; in the assay on CaCo2 (setting [2]), 5.40; with DU145 (setting [3]), 5.34; with MDA-MB-231 (setting [4]) it was 5.64; in the assay on PC3 (setting [5]), 5.64; in the assay with SK-Mel-28 (setting [6]), 5.72. Besides, in the assay with SK-N-SH (setting [7]), the pIC50 is 5.77.

Regarding `Cc1c(C)n(CCCN2CCN(C)CC2)c2ccc(Cc3ccc(C(=O)N4CCN(CCc5ccc6ccccc6c5)CC4)cc3)cc12` [Compound 3542, (4-((2,3-dimethyl-1-(3-(4-methylpiperazin-1-yl)propyl)-1H-indol-5-yl)methyl)phenyl) (4-(2-(naphthalen-2-yl)ethyl)piperazin-1-yl)methanone], the pIC50 in the assay on A549 (setting [1]) is 5.51; in the assay on CaCo2 (setting [2]), 5.41; in the assay with DU145 (setting [3]), 5.41; with MDA-MB-231 (setting [4]), 5.55; with PC3 (setting [5]), 5.44; in the assay on SK-Mel-28 (setting [6]), 5.85. The pIC50 in the assay on SK-N-SH (setting [7]) is 5.80.

Take `COc1ccc2cc(CCN3CCN(C(=O)c4ccc(Cc5ccc6c(c5)c(C)c(C)n6CCCN5CCN(C)CC5)cc4)CC3)ccc2c1` [Compound 3543, (4-((2,3-dimethyl-1-(3-(4-methylpiperazin-1-yl)propyl)-1H-indol-5-yl)methyl)phenyl)(4-(2-(6-methoxynaphthalen-2-yl)ethyl)piperazin-1-yl)methanone]: the pIC50 was 5.82 in the assay on A549 (setting [1]); 5.82 in the assay on CaCo2 (setting [2]); 5.77 in the assay with DU145 (setting [3]); 5.89 with MDA-MB-231 (setting [4]); 5.74 in the assay on PC3 (setting [5]); 5.70 with SK-Mel-28 (setting [6]). Also, the pIC50 in the assay on SK-N-SH (setting [7]) is 5.80.
